Test results as given in patent publication US20260258420A1, “COMPOSITIONS AND METHODS FOR THE TREATMENT OF HUMAN PAPILLOMAVIRUS-DRIVEN CANCERS” (priority 2023, published 2026).

Experiments:
Format in all cases: cell-based
[1] = test system: 16 HPV-positive HNSCC and cervical squamous cancer cell lines; test: High-throughput drug screen (HTDS), cell death by AOC_LD, HPV-positive cell lines; conditions: for HPV positive Resistant (number of cell lines): resistant = AOC_LD 0; for HPV positive Sensitive (number of cell lines): sensitive = AOC_LD greater than 0
Method: (§1) The concordance correlation coefficient was computed to assess the reproducibility of the normalized growth rates of the 2 replicates. […] A chi-square test was applied to compare drug classification and the cluster membership. The Fisher exact test was applied to compare mutations status (wild-type and mutant) and drugs' response data (sensitive and resistant).
(§2) The effects of 864 unique drugs from 51 classes was tested in 16 HPV-positive and 17 HPV-negative HNSCC and cervical squamous cancer cell lines (Table 2) that were characterized previously (Kaiu, et al., Oncotarget 2017; 8(49):86369-83).

[2] = test system: 17 HPV-negative HNSCC and cervical squamous cancer cell lines; test: High-throughput drug screen (HTDS), cell death by AOC_LD, HPV-negative cell lines; conditions: for HPV negative Resistant (number of cell lines): resistant = AOC_LD 0; for HPV negative Sensitive (number of cell lines): sensitive = AOC_LD greater than 0
Method: as §1, §2

[3] = test system: 16 HPV-positive and 17 HPV-negative HNSCC and cervical squamous cancer cell lines; test: High-throughput drug screen (HTDS), whole panel, comparison by HPV status; conditions: for odds ratio: sensitivity in HPV-positive vs HPV-negative cell lines; for efficacy in HPV-positive vs HPV-negative cell lines: AOC_LD as a dichotomous variable; for cell death: at concentrations known to inhibit mTOR
Method: as §1, §2

Structure (SMILES) | HPV positive Resistant (number of cell lines) [1] | HPV positive Sensitive (number of cell lines) [1] | HPV negative Resistant (number of cell lines) [2] | HPV negative Sensitive (number of cell lines) [2] | odds ratio [3] | efficacy in HPV-positive vs HPV-negative cell lines [3] | cell death [3]
Clc1ccc(C2(c3ccc(-c4cn[nH]c4)cc3)CCNCC2)cc1 [AT7867] | 12 | 4 | 17 | 0 | Inf | – | –
COc1ccc(-c2ccc3c(N4CCOC[C@@H]4C)nc(N4CCOC[C@@H]4C)nc3n2)cc1CO [AZD8055] | 11 | 5 | 17 | 0 | Inf | – | –
O=C(Nc1cccc(Nc2ncc(Br)c(NCCc3cnc[nH]3)n2)c1)N1CCCC1 [BX912] | 8 | 8 | 16 | 1 | 14.66 | – | –
CC(C)C[C@H](NC(=O)[C@H](CCc1ccccc1)NC(=O)CN1CCOCC1)C(=O)N[C@@H](Cc1ccccc1)C(=O)N[C@@H](CC(C)C)C(=O)[C@@]1(C)CO1 [CARFILZOMIB] | 0 | 16 | 5 | 12 | Inf | – | –
Cc1nc(N)sc1-c1ccnc(Nc2ccc(N3CCOCC3)cc2)n1 [CYC116] | 7 | 9 | 15 | 2 | – | tended to be more effective in HPV-positive cell lines | –
CCn1cc(-c2ccnc3[nH]c(-c4cccc(CN(C)C)c4)cc23)c(-c2ccc(NC(=O)N(C)C)cc2)n1 [GSK1070916] | 4 | 12 | 12 | 5 | – | tended to be more effective in HPV-positive cell lines | –
Nc1nc(Nc2ccc(S(N)(=O)=O)cc2)nn1C(=O)c1c(F)cccc1F [JNJ7706621] | 4 | 12 | 11 | 6 | – | more effective in HPV-positive than in HPV-negative cell lines | –
CO[C@H]1C[C@@H]2CC[C@@H](C)[C@@](O)(O2)C(=O)C(=O)N2CCCC[C@H]2C(=O)O[C@H]([C@H](C)C[C@@H]2CC[C@@H](OCCO)[C@H](OC)C2)CC(=O)[C@H](C)/C=C(\C)[C@@H](O)[C@@H](OC)C(=O)[C@H](C)C[C@H](C)/C=C/C=C/C=C/1C [everolimus] | – | – | – | – | – | – | caused cell death only in a single cell line
COc1ccc([C@@H]2CC(=O)c3c(O)cc(O[C@@H]4O[C@H](CO[C@@H]5O[C@@H](C)[C@H](O)[C@@H](O)[C@H]5O)[C@@H](O)[C@H](O)[C@H]4O)cc3O2)cc1O [hesperidin] | – | – | – | – | – | more effective in HPV-positive than in HPV-negative cell lines | –
CO[C@H]1C[C@@H]2CC[C@@H](C)[C@@](O)(O2)C(=O)C(=O)N2CCCC[C@H]2C(=O)O[C@H]([C@H](C)C[C@@H]2CC[C@@H](OP(C)(C)=O)[C@H](OC)C2)CC(=O)[C@H](C)/C=C(\C)[C@@H](O)[C@@H](OC)C(=O)[C@H](C)C[C@H](C)/C=C/C=C/C=C/1C [ridaforolimus] | – | – | – | – | – | – | caused cell death only in a single cell line
